Data: patent US8748348B2, “3-(3,4-dihydro-2H-benzo [1,4]oxazin-6-yl)-1H-pyrimidin-2,4-dione compounds as herbicides” (BASF SE, priority 2009, dated 2014)

What was measured:
BRAPL = assay: greenhouse post-emergence herbicidal test; assay type: in vivo, Brachiaria plantaginea; settings: scale from 0 to 100
Description: (§1) The culture containers used were plastic flowerpots containing loamy sand with approximately 3.0% of humus as the substrate. The seeds of the test plants were sown separately for each species.
(§2) For the post-emergence treatment, the test plants were first grown to a height of 3 to 15 cm, depending on the plant habit, and only then treated with the active ingredients which had been suspended or emulsified in water. For this purpose, the test plants were either sown directly and grown in the same containers, or they were first grown separately as seedlings and transplanted into the test containers a few days prior to treatment.
(§3) Depending on the species, the plants were kept at 10-25° C. or 20-35° C. The test period extended over 2 to 4 weeks. During this time, the plants were tended, and their response to the individual treatments was evaluated.
(§4) Evaluation was carried out using a scale from 0 to 100. 100 means no emergence of the plants, or complete destruction of at least the aerial moieties, and 0 means no damage, or normal course of growth. A good herbicidal activity is given at values of at least 70 and a very good herbicidal activity is given at values of at least 85.

COMBE = assay: greenhouse post-emergence herbicidal test; assay type: in vivo, Commenline benghalensis; settings: scale from 0 to 100
Description: as §1, §2, §3, §4

SETVI = assay: greenhouse post-emergence herbicidal test; assay type: in vivo, Setaria viridis; settings: scale from 0 to 100
Description: as §1, §2, §3, §4

ERICA = assay: greenhouse post-emergence herbicidal test; assay type: in vivo, Erigeron canadensis; settings: scale from 0 to 100
Description: as §1, §2, §3, §4

BRADE = assay: greenhouse post-emergence herbicidal test; assay type: in vivo, Brachiaria deflexa; settings: scale from 0 to 100
Description: as §1, §2, §3, §4

ELEIN = assay: greenhouse post-emergence herbicidal test; assay type: in vivo, Eleusine indica; settings: scale from 0 to 100
Description: as §1, §2, §3, §4

DIGSA = assay: greenhouse post-emergence herbicidal test; assay type: in vivo, Digitaria sanguinales; settings: scale from 0 to 100
Description: as §1, §2, §3, §4

Pharbitis purpurea [1] = assay: greenhouse pre-emergence herbicidal test; assay type: in vivo; settings: application rate 0.025 kg/ha, eight days after treatment (greenhouse)
Description: as §1
(§5) For the pre-emergence treatment, the active ingredients, which had been suspended or emulsified in water, were applied directly after sowing by means of finely distributing nozzles. The containers were irrigated gently to promote germination and growth and subsequently covered with transparent plastic hoods until the plants had rooted. This cover caused uniform germination of the test plants, unless this has been impaired by the active ingredients.
as §3, §4

Setaria faberi = assay: greenhouse pre-emergence herbicidal test; assay type: in vivo; settings: application rate 0.025 kg/ha, eight days after treatment (greenhouse)
Description: as §1, §5, §3, §4

Solanum nigrum = assay: greenhouse pre-emergence herbicidal test; assay type: in vivo; settings: pre-emergence method, application rate 6.25 g/ha
Description: as §1, §5, §3, §4

Erigeron Canadensis = assay: greenhouse pre-emergence herbicidal test; assay type: in vivo; settings: pre-emergence method, application rate 6.25 g/ha
Description: as §1, §5, §3, §4

Amaranthus retroflexus [2] = assay: greenhouse pre-emergence herbicidal test; assay type: in vivo; settings: pre-emergence method, application rate 6.25 g/ha
Description: as §1, §5, §3, §4

Pharbitis purpurea [3] = assay: greenhouse post-emergence herbicidal test; assay type: in vivo; settings: post-emergence method, application rate 6.25 g/ha
Description: as §1, §2, §3, §4

Abutilon theophrasti = assay: greenhouse post-emergence herbicidal test; assay type: in vivo; settings: post-emergence method, application rate 6.25 g/ha
Description: as §1, §2, §3, §4

Chenopodium album = assay: greenhouse post-emergence herbicidal test; assay type: in vivo; settings: post-emergence method, application rate 6.25 g/ha
Description: as §1, §2, §3, §4

Amaranthus retroflexus [4] = assay: greenhouse post-emergence herbicidal test; assay type: in vivo; settings: post-emergence method, application rate 6.25 g/ha
Description: as §1, §2, §3, §4

## CCNc1nc(Cl)nc(NC(C)C)n1 [B.54, atrazine, reference compound]
BRAPL; B.54 250 g/ha a.s.
  herbicidal activity against BRAPL found: 20
COMBE; B.54 250 g/ha a.s.
  herbicidal activity against COMBE found: 70

## CC(C)N(C)S(=O)(=O)NC(=O)c1cc(-n2c(=O)cc(C(F)(F)F)n(C)c2=O)c(F)cc1Cl [B.76, saflufenacil]
SETVI; B.76 1.56 g/ha a.s.
  herbicidal activity against SETVI found: 0
ERICA; B.76 1.56 g/ha a.s.
  herbicidal activity against ERICA found: 45

## Cc1c(C(=O)c2cnn(C)c2O)ccc(S(C)(=O)=O)c1C1=NOCC1 [B.93, topramezone, reference compound]
BRADE; B.93 3.1 g/ha a.s.
  herbicidal activity against BRADE found: 65

## CC(C)N.O=C(O)CNCP(=O)(O)O [B.98, glyphosate-isopropylammonium]
SETVI; B.98 68 g/ha a.s.
  herbicidal activity against SETVI found: 90
ERICA; B.98 68 g/ha a.s.
  herbicidal activity against ERICA found: 80
ELEIN; B.98 135 g/ha a.s.
  herbicidal activity against ELEIN found: 60

## Cn1nc(C(F)(F)F)c(CS(=O)(=O)C2=NOC(C)(C)C2)c1OC(F)F [B.118, pyroxasulfone, reference compound]
DIGSA; B.118 12.5 g/ha a.s.
  herbicidal activity against DIGSA found: 35

## C#CCN1C(=O)C(F)(F)Oc2cc(F)c(-n3c(=O)cc(C(F)(F)F)n(C)c3=O)cc21 [Ia48, 1-Methyl-6-trifluoromethyl-3-(2,2,7-trifluoro-3-oxo-4-prop-2-ynyl-3,4-dihydro-2H-benzo[1,4]oxazin-6-yl)-1H-pyrimidine-2,4-dione]
Pharbitis purpurea [1]
  damages, unwanted plants Pharbitis purpurea: 90
Setaria faberi
  damages, unwanted plants Setaria faberi: 98
Solanum nigrum
  herbicidal activity against Solanum nigrum: very good herbicidal activity (a very good herbicidal activity is given at values of at least 85)
Erigeron Canadensis
  herbicidal activity against Erigeron Canadensis: very good herbicidal activity (a very good herbicidal activity is given at values of at least 85)
Amaranthus retroflexus [2]
  herbicidal activity against Amaranthus retroflexus: very good herbicidal activity (a very good herbicidal activity is given at values of at least 85)
DIGSA; Ia48 6.25 g/ha a.s.
  herbicidal activity against DIGSA found: 65
SETVI; Ia48 12.5 g/ha a.s.
  herbicidal activity against SETVI found: 95
BRADE; Ia48 6.25 g/ha a.s.
  herbicidal activity against BRADE found: 85
Pharbitis purpurea [3]
  herbicidal activity against Pharbitis purpurea: very good herbicidal activity (a very good herbicidal activity is given at values of at least 85)
Abutilon theophrasti
  herbicidal activity against Abutilon theophrasti: very good herbicidal activity (a very good herbicidal activity is given at values of at least 85)
Chenopodium album
  herbicidal activity against Chenopodium album: very good herbicidal activity (a very good herbicidal activity is given at values of at least 85)
Amaranthus retroflexus [4]
  herbicidal activity against Amaranthus retroflexus: very good herbicidal activity (a very good herbicidal activity is given at values of at least 85)
BRAPL; Ia48 6.25 g/ha a.s.
  herbicidal activity against BRAPL found: 60
ERICA; Ia48 12.5 g/ha a.s.
  herbicidal activity against ERICA found: 90
COMBE; Ia48 3.12 g/ha a.s.
  herbicidal activity against COMBE found: 60
ELEIN; Ia48 3.12 g/ha a.s.
  herbicidal activity against ELEIN found: 20

## C#CCN1C(=O)COc2cc(F)c(-n3c(=O)cc(C(F)(F)F)n(C)c3=O)cc21 [example 39, reference compound]
Pharbitis purpurea [1]
  damages, unwanted plants Pharbitis purpurea: 80
Setaria faberi
  damages, unwanted plants Setaria faberi: 90
